This test has as its target T1, hGIP-R (Homo sapiens, UniProt P48546).
T1 construct: expressed in transfected cells; host or cells: HEK-293 clonal cell lines
T1 sequence (P48546 22-466): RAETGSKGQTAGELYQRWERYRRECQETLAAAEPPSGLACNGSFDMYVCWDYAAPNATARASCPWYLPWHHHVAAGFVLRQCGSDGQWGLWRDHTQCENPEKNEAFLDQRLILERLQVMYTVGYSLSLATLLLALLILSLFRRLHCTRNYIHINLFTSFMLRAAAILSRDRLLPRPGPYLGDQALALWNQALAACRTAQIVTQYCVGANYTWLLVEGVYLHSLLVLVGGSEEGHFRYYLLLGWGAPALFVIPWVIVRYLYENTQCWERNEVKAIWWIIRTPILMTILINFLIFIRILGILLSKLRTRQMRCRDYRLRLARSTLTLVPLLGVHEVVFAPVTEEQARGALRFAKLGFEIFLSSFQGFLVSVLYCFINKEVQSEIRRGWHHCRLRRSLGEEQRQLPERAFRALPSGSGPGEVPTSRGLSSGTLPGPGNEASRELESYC
Briefly: Functional hGIP-R Assay (cAMP formation, HTRF). The class given is cell-based. The following applies: for Emax: cAMP efficacy, percent of maximal response to GIP(1-42)OH, 37° C., 0.1% bovine casein, arithmetic mean ± SEM; for EC50: cAMP potency, HEK-293 cells expressing hGIP-R, incubated at 37° C. in the presence of 0.1% bovine casein, geometric mean, read-out: Human GIP-R EC50, nM (SEM, n). Put shortly:
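HEK-293 cells expressing hGIP-R were given a 20-point compound series in DMEM with 0.1% casein, 250 μM IBMX, 1% DMSO, 30 min at 37 °C. cAMP was read by HTRF against a standard curve, expressed as % of human GIP (1-42) OH maximum; EC50 and Emax came from four-parameter fits.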

These results are taken from patent US20260108546A1 (ELI LILLY AND COMPANY, priority 2024, published 2026).

The term Emax denotes the greatest response seen or fitted, relative to the assay's reference. The term EC50 denotes the concentration at which the effect is half-maximal.

`Cn1cc(C[C@@H](NC(=O)[C@H]2C[C@@H]2c2ccc(-c3cnc4nn(C)cc4c3)cc2)C(=O)NC(C)(C)Cn2nc(C(F)(F)F)cc2-c2cnn(CC3COC3)c2)cn1` [Example 55, (1S,2S)-N-((R)-1-((2-Methyl-1-(1′-(oxetan-3-ylmethyl)-5-(trifluoromethyl)-1′H,2H-[3,4′-bipyrazol]-2-yl)propan-2-yl)amino)-3-(1-methyl-1H-pyrazol-4-yl)-1-oxopropan-2-yl)-2-(4-(2-methyl-2H-pyrazolo[3,4-b]pyridin-5-yl)phenyl) cyclopropane-1-carboxamide]: the Emax was 109 ± 0.179% and the EC50 was 49.1 nM.
The corresponding values for `Cn1cc(C[C@@H](NC(=O)[C@H]2C[C@@H]2c2ccc(-c3cnc4nn(C)cc4c3)cc2)C(=O)NC(C)(C)Cn2nc(C(F)(F)F)cc2-c2cnn3c2CN(C(=O)OC(C)(C)C)CC3)cn1` [Example 56, tert-Butyl 3-(1-(2-methyl-2-((R)-3-(1-methyl-1H-pyrazol-4-yl)-2-((1S,2S)-2-(4-(2-methyl-2H-pyrazolo[3,4-b]pyridin-5-yl)phenyl)cyclopropane-1-carboxamido)propanamido)propyl)-3-(trifluoromethyl)-1H-pyrazol-5-yl)-6,7-dihydropyrazolo[1,5-a]pyrazine-5(4H)-carboxylate] are 113 ± 10.7% and 84.6 nM.
On to `Cn1cc(C[C@@H](NC(=O)[C@H]2C[C@@H]2c2ccc(-c3cnc4nn(C)cc4c3)cc2)C(=O)NC(C)(C)Cn2nc(C(F)(F)F)cc2-c2cc3c(=O)[nH]cnn3c2)cn1` [Example 57, (1S,2S)-N-((R)-1-((2-Methyl-1-(5-(4-oxo-3,4-dihydropyrrolo[2,1-f][1,2,4]triazin-6-yl)-3-(trifluoromethyl)-1H-pyrazol-1-yl)propan-2-yl)amino)-3-(1-methyl-1H-pyrazol-4-yl)-1-oxopropan-2-yl)-2-(4-(2-methyl-2H-pyrazolo[3,4-b]pyridin-5-yl)phenyl) cyclopropane-1-carboxamide], for which the Emax came to 112 ± 14.8% and the EC50 is 61 nM.
With `Cn1cc(C[C@@H](NC(=O)[C@H]2C[C@@H]2c2ccc(-c3cnc4nn(C)cc4c3)cc2)C(=O)NC(C)(C)Cn2nc(C(F)(F)F)cc2-c2cccn(C)c2=O)cn1` [Example 58, (1S,2S)-N-((R)-1-((2-Methyl-1-(5-(1-methyl-2-oxo-1,2-dihydropyridin-3-yl)-3-(trifluoromethyl)-1H-pyrazol-1-yl)propan-2-yl)amino)-3-(1-methyl-1H-pyrazol-4-yl)-1-oxopropan-2-yl)-2-(4-(2-methyl-2H-pyrazolo[3,4-b]pyridin-5-yl)phenyl) cyclopropane-1-carboxamide], the Emax worked out at 110 ± 1.71% and the EC50 stood at 23.8 nM.
The corresponding values for `Cn1cc(C[C@@H](NC(=O)[C@H]2C[C@@H]2c2ccc(-c3cnc4nn(C)cc4c3)cc2)C(=O)NC(C)(C)Cn2nc(C(F)(F)F)cc2-c2ccc(=O)[nH]c2)cn1` [Example 59, (1S,2S)-N-((R)-1-((2-Methyl-1-(5-(6-oxo-1,6-dihydropyridin-3-yl)-3-(trifluoromethyl)-1H-pyrazol-1-yl)propan-2-yl)amino)-3-(1-methyl-1H-pyrazol-4-yl)-1-oxopropan-2-yl)-2-(4-(2-methyl-2H-pyrazolo[3,4-b]pyridin-5-yl)phenyl) cyclopropane-1-carboxamide] are 122 ± 2.6% and 49.1 nM.
As to `CN(C(=O)[C@H]1C[C@@H]1c1ccc(-c2cnc3nn(C)cc3c2)cc1F)[C@H](Cc1cnn(C)c1)C(=O)NC(C)(C)Cn1nc(C(F)(F)F)cc1-c1ccc(=O)n(C)c1` [Example 61, (1S,2S)-2-(2-Fluoro-4-(2-methyl-2H-pyrazolo [3,4-b]pyridin-5-yl)phenyl)-N-methyl-N-((R)-1-((2-methyl-1-(5-(1-methyl-6-oxo-1,6-dihydropyridin-3-yl)-3-(trifluoromethyl)-1H-pyrazol-1-yl)propan-2-yl)amino)-3-(1-methyl-1H-pyrazol-4-yl)-1-oxopropan-2-yl) cyclopropane-1-carboxamide], the Emax is 88.5 ± 2.66% and the EC50 stood at 56.8 nM.
Taken in the same sequence, the figures for `Cn1cc2cc(-c3ccc([C@H]4C[C@@H]4C(=O)N[C@H](Cc4cnc5ncccn45)C(=O)NC(C)(C)Cn4nc(C(F)(F)F)cc4-c4ccc(=O)n(C)c4)cc3)cnc2n1` [Example 62, (1S,2S)-N-((R)-3-(imidazo[1,2-a]pyrimidin-3-yl)-1-((2-methyl-1-(5-(1-methyl-6-oxo-1,6-dihydropyridin-3-yl)-3-(trifluoromethyl)-1H-pyrazol-1-yl)propan-2-yl)amino)-1-oxopropan-2-yl)-2-(4-(2-methyl-2H-pyrazolo[3,4-b]pyridin-5-yl)phenyl) cyclopropane-1-carboxamide] were 67.8 ± 10.2% and 17.5 nM.
`Cn1cc2cc(-c3ccc([C@H]4C[C@@]45CCN([C@H](Cc4cnn(C(F)F)c4)C(=O)NC(C)(C)Cn4nc(C(F)(F)F)cc4-c4ccc(=O)n(C)c4)C5=O)cc3)cnc2n1` [Example 63, (R)-3-(1-(Difluoromethyl)-1H-pyrazol-4-yl)-N-(2-methyl-1-(5-(1-methyl-6-oxo-1,6-dihydropyridin-3-yl)-3-(trifluoromethyl)-1H-pyrazol-1-yl)propan-2-yl)-2-((1R,3R)-1-(4-(2-methyl-2H-pyrazolo[3,4-b]pyridin-5-yl)phenyl)-4-oxo-5-azaspiro[2.4]heptan-5-yl)propanamide]: the Emax amounted to 62.1 ± 3.55% and the concentration giving a half-maximal response (EC50) came out at 21.6 nM.
`Cn1cc(C[C@@H](NC(=O)[C@H]2C[C@@H]2c2ccc(-c3cnc4nn(C)cc4c3)cc2)C(=O)NC(C)(C)Cn2nc(C(F)(F)F)cc2-c2cccc(=O)[nH]2)cn1` [Example 64, (1S,2S)-N—((R)-1-((2-Methyl-1-(5-(6-oxo-1,6-dihydropyridin-2-yl)-3-(trifluoromethyl)-1H-pyrazol-1-yl)propan-2-yl)amino)-3-(1-methyl-1H-pyrazol-4-yl)-1-oxopropan-2-yl)-2-(4-(2-methyl-2H-pyrazolo[3,4-b]pyridin-5-yl)phenyl)cyclopropane-1-carboxamide]: the Emax was 128% and the EC50 was found to be 61.9 nM.
As to `COCn1ncc(-c2cc(C(F)(F)F)nn2CC(C)(C)NC(=O)[C@@H](Cc2cnn(C)c2)NC(=O)[C@H]2C[C@@H]2c2ccc(-c3cnc4nn(C)cc4c3)cc2)n1` [Example 65, (1S,2S)-N—((R)-1-((1-(5-(2-(Methoxymethyl)-2H-1,2,3-triazol-4-yl)-3-(trifluoromethyl)-1H-pyrazol-1-yl)-2-methylpropan-2-yl)amino)-3-(1-methyl-1H-pyrazol-4-yl)-1-oxopropan-2-yl)-2-(4-(2-methyl-2H-pyrazolo[3,4-b]pyridin-5-yl)phenyl)cyclopropane-1-carboxamide], the Emax was 113 ± 4.23% and the concentration giving a half-maximal response (EC50) was 38.1 nM.
Taken in the same sequence, the figures for `Cn1cc(C[C@@H](NC(=O)[C@H]2C[C@@H]2c2ccc(-c3cnc4nn(C)cc4c3)cc2)C(=O)NC(C)(C)Cn2nc(C(F)(F)F)cc2-c2cnn(C)n2)cn1` [Example 66, (1S,2S)-N—((R)-1-((2-Methyl-1-(5-(2-methyl-2H-1,2,3-triazol-4-yl)-3-(trifluoromethyl)-1H-pyrazol-1-yl)propan-2-yl)amino)-3-(1-methyl-1H-pyrazol-4-yl)-1-oxopropan-2-yl)-2-(4-(2-methyl-2H-pyrazolo[3,4-b]pyridin-5-yl)phenyl)cyclopropane-1-carboxamide] were 118 ± 0.533% and 99.3 nM.
